According to the CheMixHub viscosity set:

Test: xn = mol fraction of the nth substance listed

Nc1ccccc1 + CCCCOCCO
viscosity [mPa·s]
Details	298 K	303 K	303.15 K	308 K	313 K	318 K
101 kPa, x1 = 0.138	–	–	2.999	–	–	–
101 kPa, x1 = 0.2648	–	–	3.156	–	–	–
101 kPa, x1 = 0.3818	–	–	3.287	–	–	–
101 kPa, x1 = 0.49	–	–	3.4	–	–	–
101 kPa, x1 = 0.5903	–	–	3.486	–	–	–
101 kPa, x1 = 0.6837	–	–	3.553	–	–	–
101 kPa, x1 = 0.7708	–	–	3.614	–	–	–
101 kPa, x1 = 0.8522	–	–	3.666	–	–	–
101 kPa, x1 = 0.9284	–	–	3.707	–	–	–
101.3 kPa, x2 = 0.0995	3.539	2.974	–	2.573	2.238	1.967
101.3 kPa, x2 = 0.1968	3.471	2.915	–	2.528	2.189	1.929
101.3 kPa, x2 = 0.2548	3.448	2.887	–	2.512	2.184	1.922
101.3 kPa, x2 = 0.3024	3.429	2.886	–	2.507	2.16	1.905
101.3 kPa, x2 = 0.3953	3.397	2.86	–	2.482	2.145	1.893
101.3 kPa, x2 = 0.4355	3.39	2.854	–	2.477	2.143	1.892
101.3 kPa, x2 = 0.5146	3.35	2.833	–	2.463	2.123	1.875
101.3 kPa, x2 = 0.5909	3.31	2.805	–	2.438	2.108	1.856
101.3 kPa, x2 = 0.6936	3.219	2.731	–	2.381	2.07	1.827
101.3 kPa, x2 = 0.8002	3.1	2.588	–	2.332	2.02	1.787
101.3 kPa, x2 = 0.8933	2.974	2.545	–	2.259	1.962	1.742

CCNCC + CCCCOCCOCCO
viscosity [mPa·s], 100 kPa
Details	298.15 K	303.15 K	308.15 K
x2 = 0.05043	0.3695	0.3487	0.3286
x2 = 0.09991	0.457	0.4294	0.4036
x2 = 0.1494	0.5594	0.5411	0.4914
x2 = 0.2	0.699	0.6487	0.6022
x2 = 0.3	1.062	0.9662	0.8961
x2 = 0.4001	1.56	1.376	1.288
x2 = 0.5	2.156	1.896	1.722
x2 = 0.6	2.817	2.45	2.215
x2 = 0.6997	3.484	3.007	2.686
x2 = 0.7998	4.107	3.511	3.132
x2 = 0.9	4.667	3.966	3.532
x2 = 0.9491	4.904	4.167	3.705

CN(CCO)CCO + CCCCn1cc[n+](C)c1.F[B-](F)(F)F
Details	viscosity [mPa·s]
323.15 K, 101 kPa, x2 = 0.6997	20.65

COCCOCCOCCO + CCCN
298.15 K, 101 kPa
Details	viscosity [mPa·s]
x1 = 0.0053	0.369
x1 = 0.0087	0.378
x1 = 0.0251	0.415
x1 = 0.0368	0.44
x1 = 0.068	0.514
x1 = 0.081	0.549
x1 = 0.105	0.617
x1 = 0.1254	0.682
x1 = 0.1752	0.861
x1 = 0.2146	1.034
x1 = 0.2627	1.279
x1 = 0.2934	1.456
x1 = 0.3347	1.724
x1 = 0.3651	1.935
x1 = 0.4217	2.362
x1 = 0.471	2.749
x1 = 0.5445	3.35
x1 = 0.574	3.599
x1 = 0.6281	4.032
x1 = 0.6683	4.359
x1 = 0.7088	4.66
x1 = 0.7716	5.104
x1 = 0.812	5.359
x1 = 0.8595	5.626
x1 = 0.8867	5.774
x1 = 0.9185	5.92

Oc1ccc2ccccc2c1 + CCCO
viscosity [mPa·s], 101 kPa
Details	x1 = 0.04	x1 = 0.08	x1 = 0.12	x1 = 0.16	x1 = 0.2
293.15 K	2.6	3.004	3.529	4.172	4.954
303.15 K	2.025	2.288	2.658	3.1	3.63
313.15 K	1.635	1.803	2.062	2.37	2.764
323.15 K	1.326	1.447	1.636	1.869	2.168
